Laboratory results published in ChEMBL document CHEMBL1156330, “Discovery of a spiroindane based compound as a potent, selective, orally bioavailable melanocortin subtype-4 receptor agonist” (Bioorg Med Chem Lett, 2010).

Assays:
[1] = biological target: T1, Melanocyte-stimulating hormone receptor (Homo sapiens, UniProt Q01726); assay: Agonist activity at human MC1R expressed in CHO cells assessed as stimulation of intracellular cAMP accumulation; format: functional, cell-based
Target sequence in this assay (Q01726 whole entry): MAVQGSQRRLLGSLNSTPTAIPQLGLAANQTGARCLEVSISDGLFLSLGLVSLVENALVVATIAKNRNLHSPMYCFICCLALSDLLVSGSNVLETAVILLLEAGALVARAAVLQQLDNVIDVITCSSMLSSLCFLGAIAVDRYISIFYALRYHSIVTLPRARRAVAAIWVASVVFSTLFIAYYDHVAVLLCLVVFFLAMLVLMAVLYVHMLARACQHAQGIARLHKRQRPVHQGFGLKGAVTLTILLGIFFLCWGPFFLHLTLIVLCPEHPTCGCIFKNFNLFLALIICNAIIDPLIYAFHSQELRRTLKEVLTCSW

Melanocortin receptor 4 [2] = biological target: T2, Melanocortin receptor 4 (Homo sapiens, UniProt P32245); assay: Agonist activity at human MC4R expressed in CHO cells assessed as stimulation of intracellular cAMP accumulation at 10 uM relative to alpha-MSH; format: functional, cell-based
T2 sequence (P32245 whole entry): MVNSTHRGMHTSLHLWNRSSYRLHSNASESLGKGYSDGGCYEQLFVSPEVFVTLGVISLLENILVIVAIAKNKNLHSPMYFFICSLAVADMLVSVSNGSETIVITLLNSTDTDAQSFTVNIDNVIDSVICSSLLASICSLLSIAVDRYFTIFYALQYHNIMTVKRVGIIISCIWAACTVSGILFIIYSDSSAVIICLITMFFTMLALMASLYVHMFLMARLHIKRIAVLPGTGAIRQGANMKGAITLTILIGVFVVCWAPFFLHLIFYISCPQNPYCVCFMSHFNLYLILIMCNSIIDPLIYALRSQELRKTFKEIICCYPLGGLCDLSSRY

[3] = biological target: T1, Melanocyte-stimulating hormone receptor; assay: Agonist activity at human MC1R expressed in CHO cells assessed as stimulation of intracellular cAMP accumulation at 10 uM relative to alpha-MSH; format: functional, cell-based
Target sequence in this assay (Q01726 whole entry, looked up): as the sequence (Q01726 whole entry) above

Melanocortin receptor 4 [4] = biological target: T2, Melanocortin receptor 4; assay: Displacement of [125I]NDP-alpha-MSH from human MC4R expressed in CHO cells; format: cell-based
Melanocortin receptor 4 [5] = biological target: T2, Melanocortin receptor 4; assay: Agonist activity at human MC4R expressed in CHO cells assessed as stimulation of intracellular cAMP accumulation; format: functional, cell-based
Melanocortin receptor 5 [6] = biological target: T3, Melanocortin receptor 5 (Homo sapiens, UniProt P33032); assay: Agonist activity at human MC5R expressed in CHO cells assessed as stimulation of intracellular cAMP accumulation at 10 uM relative to alpha-MSH; format: functional, cell-based
T3 sequence (P33032 whole entry): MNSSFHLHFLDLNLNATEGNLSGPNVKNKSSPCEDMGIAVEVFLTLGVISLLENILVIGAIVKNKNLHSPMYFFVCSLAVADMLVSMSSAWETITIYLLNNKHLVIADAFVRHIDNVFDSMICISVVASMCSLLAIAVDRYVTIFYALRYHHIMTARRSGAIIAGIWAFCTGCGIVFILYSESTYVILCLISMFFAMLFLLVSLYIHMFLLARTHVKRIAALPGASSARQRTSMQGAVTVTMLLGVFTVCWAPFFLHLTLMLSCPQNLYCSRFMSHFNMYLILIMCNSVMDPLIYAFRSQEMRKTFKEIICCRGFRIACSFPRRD

[7] = Bioavailability in rhesus monkey at 0.5 mg/kg, iv and 2 mg/kg, po; format: ADME, organism-based, Macaca mulatta; details: in vivo
[8] = biological target: Melanocortin receptor 4 (Rattus norvegicus) (UniProt P70596); assay: Agonist activity at rat MC4R expressed in CHO cells assessed as stimulation of intracellular cAMP accumulation at 10 uM relative to alpha-MSH; format: functional, cell-based
Melanocortin receptor 4 (Rattus norvegicus), sequence (P70596 whole entry): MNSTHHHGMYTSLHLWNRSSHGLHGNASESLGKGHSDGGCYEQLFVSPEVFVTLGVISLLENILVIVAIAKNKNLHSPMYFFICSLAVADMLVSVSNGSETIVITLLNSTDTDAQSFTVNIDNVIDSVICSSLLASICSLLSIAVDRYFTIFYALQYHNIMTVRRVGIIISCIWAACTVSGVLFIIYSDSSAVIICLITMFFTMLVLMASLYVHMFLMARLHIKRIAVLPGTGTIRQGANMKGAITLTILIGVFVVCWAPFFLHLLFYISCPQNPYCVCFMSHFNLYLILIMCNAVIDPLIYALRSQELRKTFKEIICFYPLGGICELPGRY

[9] = Clearance in Sprague-Dawley rat at 1 mg/kg, iv and 4 mg/kg, po; format: ADME, organism-based; details: in vivo
Rattus norvegicus [10] = assay: Antiobesity activity in po dosed DIO rat assessed as decrease in food intake after 14 days
[11] = Clearance in Beagle dog at 0.5 mg/kg, iv and 1.0 mg/kg, po; format: ADME, organism-based, Canis lupus familiaris; details: in vivo
Rattus norvegicus [12] = assay: Antiobesity activity in po dosed DIO rat assessed as decrease in body weight after 14 days
Rattus norvegicus [13] = assay: Erectogenic activity in rat assessed as spontaneous erections at 0.001 mg/kg, iv for 30 mins; format: functional
Melanocortin receptor 3 [14] = biological target: Melanocortin receptor 3 (Rattus norvegicus, UniProt P32244); assay: Agonist activity at rat MC3R expressed in CHO cells assessed as stimulation of intracellular cAMP accumulation; format: functional, cell-based
Melanocortin receptor 3 (Rattus norvegicus, UniProt P32244), sequence (P32244 whole entry): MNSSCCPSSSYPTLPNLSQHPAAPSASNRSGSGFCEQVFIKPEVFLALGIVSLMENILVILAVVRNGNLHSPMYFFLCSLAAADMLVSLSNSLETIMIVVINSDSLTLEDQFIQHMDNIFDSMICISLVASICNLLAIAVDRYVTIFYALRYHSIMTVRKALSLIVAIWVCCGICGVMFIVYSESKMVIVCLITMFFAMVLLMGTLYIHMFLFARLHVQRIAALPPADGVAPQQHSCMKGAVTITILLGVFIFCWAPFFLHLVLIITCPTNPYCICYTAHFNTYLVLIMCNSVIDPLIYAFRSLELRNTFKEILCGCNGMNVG

[15] = Half life in Sprague-Dawley rat at 1 mg/kg, iv and 4 mg/kg, po; format: ADME, organism-based; details: in vivo
Melanocortin receptor 3 [16] = biological target: T4, Melanocortin receptor 3 (Homo sapiens, UniProt P41968); assay: Agonist activity at human MC3R expressed in CHO cells assessed as stimulation of intracellular cAMP accumulation; format: functional, cell-based
T4 sequence (P41968 whole entry): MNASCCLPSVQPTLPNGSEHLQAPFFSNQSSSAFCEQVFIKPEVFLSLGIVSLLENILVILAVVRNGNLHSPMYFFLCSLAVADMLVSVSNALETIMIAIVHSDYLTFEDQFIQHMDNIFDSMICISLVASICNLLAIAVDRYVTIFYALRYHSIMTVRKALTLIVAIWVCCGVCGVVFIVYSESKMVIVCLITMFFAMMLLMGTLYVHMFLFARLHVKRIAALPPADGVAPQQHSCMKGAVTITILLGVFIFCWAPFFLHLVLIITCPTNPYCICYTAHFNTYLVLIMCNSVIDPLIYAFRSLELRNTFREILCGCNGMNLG

[17] = Bioavailability in Beagle dog at 0.5 mg/kg, iv and 1.0 mg/kg, po; format: ADME, organism-based, Canis lupus familiaris; details: in vivo
[18] = Volume of distribution at steady state in rhesus monkey at 0.5 mg/kg, iv and 2 mg/kg, po; format: ADME, organism-based, Macaca mulatta; details: in vivo, read-out: Vdss
[19] = Half life in rhesus monkey at 0.5 mg/kg, iv and 2 mg/kg, po; format: ADME, organism-based, Macaca mulatta; details: in vivo
[20] = biological target: T1, Melanocyte-stimulating hormone receptor; assay: Displacement of [125I]NDP-alpha-MSH from human MC1R expressed in CHO cells; format: cell-based
Target sequence in this assay (Q01726 whole entry): as the sequence (Q01726 whole entry) above

Melanocortin receptor 3 [21] = biological target: T4, Melanocortin receptor 3; assay: Agonist activity at human MC3R expressed in CHO cells assessed as stimulation of intracellular cAMP accumulation at 10 uM relative to alpha-MSH; format: functional, cell-based
[22] = Volume of distribution at steady state in Sprague-Dawley rat at 1 mg/kg, iv and 4 mg/kg, po; format: ADME, organism-based; details: in vivo, read-out: Vdss
[23] = Half life in Beagle dog at 0.5 mg/kg, iv and 1.0 mg/kg, po; format: ADME, organism-based, Canis lupus familiaris; details: in vivo
[24] = Volume of distribution at steady state in Beagle dog at 0.5 mg/kg, iv and 1.0 mg/kg, po; format: ADME, organism-based, Canis lupus familiaris; details: in vivo, read-out: Vdss
Rattus norvegicus [25] = assay: Erectogenic activity in rat assessed as spontaneous erections at 1 ug/kg, iv for 30 mins; format: functional
[26] = Bioavailability in Sprague-Dawley rat at 1 mg/kg, iv and 4 mg/kg, po; format: ADME, organism-based; details: in vivo
Melanocortin receptor 4 [27] = biological target: Melanocortin receptor 4 (Rattus norvegicus, UniProt P70596); assay: Agonist activity at rat MC4R expressed in CHO cells assessed as stimulation of intracellular cAMP accumulation; format: functional, cell-based
Melanocortin receptor 4 (Rattus norvegicus, UniProt P70596), sequence (P70596 whole entry): as the sequence (P70596 whole entry) above

Melanocortin receptor 4 [28] = biological target: Melanocortin receptor 4 (Mus musculus, UniProt P56450); assay: Agonist activity at mouse MC4R expressed in CHO cells assessed as stimulation of intracellular cAMP accumulation; format: functional, cell-based
Melanocortin receptor 4 (Mus musculus, UniProt P56450), sequence (P56450 whole entry): as the sequence (P70596 whole entry) above, with H21Y, S36P, T199S, A239T, P329S, G330S counted along it

Rattus norvegicus [29] = assay: Erectogenic activity in rat assessed as spontaneous erections at 0.01 mg/kg, iv for 30 mins; format: functional
[30] = Clearance in rhesus monkey at 0.5 mg/kg, iv and 2 mg/kg, po; format: ADME, organism-based, Macaca mulatta; details: in vivo
Melanocortin receptor 5 [31] = biological target: T3, Melanocortin receptor 5; assay: Displacement of [125I]NDP-alpha-MSH from human MC5R expressed in CHO cells; format: cell-based
[32] = biological target: Melanocortin receptor 3 (Rattus norvegicus) (UniProt P32244); assay: Agonist activity at rat MC3R expressed in CHO cells assessed as stimulation of intracellular cAMP accumulation at 10 uM relative to alpha-MSH; format: functional, cell-based
Melanocortin receptor 3 (Rattus norvegicus), sequence (P32244 whole entry): as the sequence (P32244 whole entry) above

Rattus norvegicus [33] = assay: Erectogenic activity in rat assessed as spontaneous erections at 1 mg/kg, iv for 30 mins; format: functional
Rattus norvegicus [34] = assay: Erectogenic activity in iv dosed rat assessed as spontaneous erections measured for 30 mins; format: functional, organism-based
Rattus norvegicus [35] = assay: Erectogenic activity in rat assessed as spontaneous erections at 3 mg/kg, iv for 30 mins; format: functional
Rattus norvegicus [36] = assay: Erectogenic activity in rat assessed as spontaneous erections at 0.1 mg/kg, iv for 30 mins; format: functional
[37] = biological target: Melanocortin receptor 4 (Mus musculus) (UniProt P56450); assay: Agonist activity at mouse MC4R expressed in CHO cells assessed as stimulation of intracellular cAMP accumulation at 10 uM relative to alpha-MSH; format: functional, cell-based
Melanocortin receptor 4 (Mus musculus), sequence (P56450 whole entry): as the sequence (P70596 whole entry) above, with H21Y, S36P, T199S, A239T, P329S, G330S counted along it

Melanocortin receptor 3 [38] = biological target: T4, Melanocortin receptor 3; assay: Displacement of [125I]NDP-alpha-MSH from human MC3R expressed in CHO cells; format: cell-based

In the case of `CC(=O)NC(C)(C)[C@H]1CC2(CCN(C(=O)[C@@H]3CN(C(C)(C)C)C[C@H]3c3ccc(F)cc3F)CC2)c2cc(Cl)c(C)cc21`, the EC50 [1] is reported as 228 nM, the Emax (Melanocortin receptor 4 [2]) is reported as 97% and the Emax [3] is reported as 39%. The IC50 (Melanocortin receptor 4 [4]) was 4.3 nM and the EC50 (Melanocortin receptor 4 [5]) was 3.2 nM.
With `CC(=O)NC(C)(C)[C@@H]1CC2(CCN(C(=O)[C@H]3CN(C(C)(C)C)C[C@@H]3c3ccc(F)cc3F)CC2)c2cc(Cl)c(C)cc21` the Emax (Melanocortin receptor 4 [2]) was 107%, the Emax [3] was 15% and the IC50 (Melanocortin receptor 4 [4]) was 89 nM. The EC50 (Melanocortin receptor 4 [5]) was 94 nM.
`CC(=O)NC(C)(C)[C@@H]1CC2(CCN(C(=O)[C@@H]3CN(C(C)(C)C)C[C@H]3c3ccc(F)cc3F)CC2)c2cc(Cl)c(C)cc21` showed an Activity (Melanocortin receptor 5 [6]) of 9%, a bioavailability [7] of 53% and an Activity [8] of 126%. For the same compound, the clearance [9] was 12 mL/min/kg, the EC50 [1] was 1020 nM and the Activity (Rattus norvegicus [10]) was “Dose-dependent effect”. For the same compound, the clearance [11] was 3.5 mL/min/kg, the Activity (Rattus norvegicus [12]) was “Dose-dependent effect” and the Activity (Rattus norvegicus [13]) was 75%. It also gave an EC50 (Melanocortin receptor 3 [14]) of 997 nM, a half-life [15] of 4.5 h and an EC50 (Melanocortin receptor 3 [16]) of 351 nM. For the same compound, the bioavailability [17] was 71%, the Vd [18] was 3.5 L/kg and the half-life [19] was 3.9 h. The IC50 [20] was 1940 nM, the Activity (Melanocortin receptor 3 [21]) was 71% and the Emax (Melanocortin receptor 4 [2]) was 105%. The Vd [22] was 5.1 L/kg, the half-life [23] was 11.2 h and the Emax [3] was 18%. It also gave a Vd [24] of 3.5 L/kg, an Activity (Rattus norvegicus [25]) of 83% and a bioavailability [26] of 33%. For the same compound, the EC50 (Melanocortin receptor 4 [27]) was 2 nM, the EC50 (Melanocortin receptor 4 [28]) was 22 nM and the Activity (Rattus norvegicus [29]) was 92%. It also gave a clearance [30] of 9.6 mL/min/kg, an IC50 (Melanocortin receptor 5 [31]) of 83.9 nM and an Activity [32] of 97%. The IC50 (Melanocortin receptor 4 [4]) was 13 nM, the Activity (Rattus norvegicus [33]) was 88% and the Activity (Rattus norvegicus [34]) was “Dose-dependent effect”. It also gave an EC50 (Melanocortin receptor 4 [5]) of 4.9 nM, an Activity (Rattus norvegicus [35]) of 75% and an Activity (Rattus norvegicus [36]) of 100%. For the same compound, the Activity [37] was 197% and the IC50 (Melanocortin receptor 3 [38]) was 890 nM.
With `CC(=O)NC(C)(C)[C@H]1CC2(CCN(C(=O)[C@H]3CN(C(C)(C)C)C[C@@H]3c3ccc(F)cc3F)CC2)c2cc(Cl)c(C)cc21` the EC50 [1] was 620 nM, the Emax (Melanocortin receptor 4 [2]) was 111% and the Emax [3] was 41%. For the same compound, the IC50 (Melanocortin receptor 4 [4]) was 39.7 nM and the EC50 (Melanocortin receptor 4 [5]) was 37.2 nM.
